The subject of series [1] is bread wheat (Triticum aestivum L.) and durum wheat (Triticum durum Desf.). The series can be described thus: Further wheat field trials under controlled and natural drought stress (Example 1e). It is filed as in vivo. Particulars: for average grain yield increase compared to untreated check / mean TGW increase versus untreated check: multitrial analysis; for average grain yield increase compared to untreated check: all 26 disease-free modalities, 30 or 75 g ha^-1; for mean TGW increase versus untreated check: controlled and natural drought stress, 20 modalities; for grain yield increase compared to untreated check: only trials under controlled drought stress conditions. From the text:
Wheat field trials were designed as randomized complete blocks with six replicates. Sowing, fertilization and general crop maintenance were done in accordance to locally accepted best practice. Crop protection maintenance products were applied preventatively only if required across all trial area (check and experimental plots and boundary areas) including locally registered seed treatment products, herbicides and insecticides. In case of potential disease attack, DMI and/or contact fungicides were applied preventatively. Application of fungicides from Qo inhibitors (strobilurines) and SDHI groups were not allowed to avoid possible interaction with compound I experimental treatments. Any products with plant growth regulator effects were excluded as well. Pesticides were applied not less than three to four days before or after experimental applications of compound I.
Following assessments were taken: general phytotoxicity at 7 and 14 days after application, general pest damage ratings before harvest, grain yield adjusted to 10% standard moisture (calculation based on fresh grain weight and grain moisture at harvest), thousand grain weight (TGW) adjusted to 10% standard moisture.
Entire plots or only central treated areas were harvested manually using cutters with stationary threshers (trials located in Argentina, Egypt and India) or with small-plot combine-harvesters (trials located in France, Italy and USA).
Single trial statistical analysis of variance (ANOVA) was done with Agstat 1.6 / ACSAP 4.29. Multi-trial analysis was based on paired t-test with comparison of compound I experimental treatments versus untreated checks and was done with TIBCO® Spotfire® 7.0.1.
To minimize risk of environmental impacts from rain on drought stress period and level, all proposed locations were validated through internal Environment and Crop Modelling process. This modelling allowed to calculate the potential drought stress intensity through estimation of climatic cumulative water deficit (sum of all daily water deficit during reproductive stage of wheat development). Daily water deficit was calculated as difference between daily precipitation and daily evapotranspiration by wheat plants. Thirty-eight candidate locations were proposed as suitable for drought stress trials. We performed field trials at fifteen locations from which we present results from the eleven disease-free trials that originated from seven locations: Egypt (Kaha), Italy (Foggia), India (Dongargaon, Mandleshwar and Sanwer) and USA (Woodland, CA; Jerome, ID).
Each field trial had two adjacent blocks: well-watered (WW) block with untreated check plots used for stress level estimation and grain yield reference and water-stressed (WS) block with experimental treatments including untreated check plots. Plot size varied between trials from 8.45 m^2 (Woodland, US) up to 30 m^2 (Kaha, EG) and harvested plot size was from 8.45 m^2 (Woodland, US) up to 20.7 m^2 (India). Seven locally adapted drought sensitive commercial varieties of spring and winter bread wheat (Triticum aestivum L.) and durum wheat (Triticum durum Desf.) were tested: var. Massimo Meridio (Foggia, IT), var. Saha 94 and Sods 12 (Kaha, EG), var. GW322 and GW366 (India), var. Alturas (Jerome, US) and var. Summit 515 (Woodland, US).
To manage drought stress, three types of water irrigation systems were used: precise drip irrigation (Kaha, EG; Foggia, IT; Woodland, US), solid-set sprinkler irrigation (Jerome, US) and flood irrigation (all sites in India). Plants in WW blocks were well irrigated from sowing till harvest to compensate 100% of evapotranspiration demand, targeting the optimum yield achievable in the trial area. Plants in WS blocks were irrigated from planting till the beginning of pre-stress period exactly at the same level of water supply as in WW conditions. […]

The subject of series [2] is detached wheat (Triticum aestivum var. Arina) leaves. The series can be described thus: Detached leaf transpiration and photosynthesis analysis. Format: in vivo, Triticum aestivum L. As for the experimental part:
Winter wheat (Triticum aestivum L.) of the variety Arina was used for the detached leaf transpiration assay. Plants were grown under optimum conditions in growth chambers until BBCH 12. The seedlings were dark-adapted for one hour; the second leaf was cut under water and directly placed into a 1.5 mL test-tube filled with 1 mL of compound I solution. The solution was prepared by dissolving compound I in dimethyl sulfoxide (DMSO) and diluting in water to the final concentrations of 3, 10, 50 and 100 mg L^-1. After weighing the initial weight of the leaf-tube-system, the leaves were placed in growth chambers at 25°C, 60% relative humidity and a light intensity of 150 µmol m^-2 s^-1 at 14 hours photoperiod. Transpiration was quantified by measuring the weight of the leaf-tube-system after 6 and 24 hours. Tubes without leaves solely filled with water were used to correct for evaporation. At 6 hours, the operating quantum efficiency of photosystem II (φPSII), which is a proxy of the photosynthetic activity, was monitored under growth conditions from the middle of the leaf using a PAM-2500 fluorometer (Walz, Effeltrich, Germany). The experimental design was a randomized complete block design with five replications for each treatment; one experimental unit was one leaf per test-tube. Statistical analysis (ANOVA) was done with Agstat 1.6 / ACSAP 4.29.

For another series, the system named is Spring wheat. In words: Crop enhancement effect on wheat under drought conditions in the field (Example 1d). To be noted: non-irrigated; for Grain Yield / TGW: adjusted to 10% standard moisture; for No. of grains per ear: average of 20 ears per plot. Format: in vivo. On the procedure:
Spring wheat (plot size 30m^2) was treated with a single application at BBCH GS 41 (early boot stage) or 49 (first awns visible) with the compound of formula I at a rate of 75.0 g a.i/ha. […] This water supply condition was maintained during the reproductive stages of plant growth (BBCH 55-89). The trial was carried out with six replicates. At the end of the trial, a 20m^2 plot was harvested from each of five replicates. […]

Setting [3] is: 75.0 g a.i/ha applied at BBCH 41.
[4] abbreviates: 75.0 g a.i/ha applied at BBCH 49.

Consider `Cn1cc(C(=O)Nc2cccc3c2C2CCC3C2=C(Cl)Cl)c(C(F)F)n1` (stereo not shown) [Compound I, benzovindiflupyr], for which the general phytotoxicity entry in series [1] (EC 100 at 30 or 75 g ha^-1, BBCH 39 to 55, all trials, 7 and 14 days after application) is “did not cause any phytotoxic effects”. Also, the “average grain yield increase with 75 g ha^-1 compared to the rate of 30 g ha^-1” value in series [1] (controlled drought stress conditions) was “+0.23 dt ha^-1”. For the same molecule, in series [1], the “average grain yield increase compared to untreated check” value was “+5.2%”, the “mean TGW increase versus untreated check” value is given as “+1.9%” and the “grain yield increase compared to untreated check” value is “+6.0%”. The “average grain yield increase compared to untreated check” value in series [1] (95% CI +1.45 to +3.21 dt ha^-1) is recorded as “+2.33 dt ha^-1”. Also, in series [1] (95 % CI [+0.23, +1.13] g 1000 seeds^-1), the “mean TGW increase versus untreated check” value is given as 0.68 g 1000 seeds^-1. The “grain yield increase compared to untreated check” value in series [1] (95% CI [+1.69, +4.03] dt ha^-1) was “+2.86 dt ha^-1”. Further, in series [1] (single trial ANOVA, p ≤ 0.05), the “TGW compared to untreated check” value is listed as “did not detect any significant effect” and the “grain yield adjusted to 10% standard moisture compared to untreated check” value is on record as “did not detect any significant effect”. The leaf transpiration result in series [2] (3, 10, 50 and 100 mg L^-1, 0 to 24 hours) is recorded as “significantly decreased leaf transpiration in a dose-dependent manner”. In addition, in series [2] (3 and 10 mg L^-1, first 6 hours), the leaf transpiration result is on record as “decreased only little”. For the same molecule, the leaf transpiration entry in series [2] (50 and 100 mg L^-1, within 6 hours of treatment) is listed as “clearly visible”. For the same molecule, in series [2] (at 6 hours, 3 to 100 mg L^-1), the “operating quantum efficiency of photosystem II (φPSII)” value is listed as “did not show an impact”. Moreover, in the series on Spring wheat (setting [3]), the Hectolitre weight is on record as 85.68 kg/Hl, the “Grain Yield” value amounted to 48.00 dT/Ha, the TGW amounted to 41.56 g and the “No. of grains per ear” value is 50.80. For the same molecule, in the series on Spring wheat (setting [4]), the Hectolitre weight came to 84.96 kg/Hl, the “Grain Yield” value is reported as 42.30 dT/Ha, the TGW is reported as 41.46 g and the “No. of grains per ear” value was 46.70.

Source of the values: patent EP3426036B1, “CROP ENHANCEMENT” (priority 2016, dated 2017).
